Measurements reported in patent US12629375B2, “Compounds with anti-tumor activity against cancer cells bearing HER2 exon 21 insertions” (Board of Regents, The University of Texas System, priority 2019, dated 2026).
Like-named read-outs stand apart in the source and are kept apart here.

Legend:
[1] = test system: Ba/F3 cells stably expressing HER2 mutations (exons 19, 20, 21); experiment: Ba/F3 HER2 mutant cell viability (Cell Titer Glo) TKI screen; format: cell-based; conditions: for inhibitory activity for HER2 mutants across all three exons: exons 19, 20, 21; for inhibitory activity for HER2 mutants across all three exons / activity against cells expressing D769 variants / inhibiting cell viability in cells expressing exon 20 mutations: 72 hours; for sensitivity of HER2 mutants to inhibitor: all HER2 mutants, 72 hours drug treatment; for activity against cells expressing D769 variants: HER2 D769 variants; for inhibiting cell viability in cells expressing exon 20 mutations: HER2 exon 20 mutations
Protocol: Briefly, stable Ba/F3 cell lines were generated by retroviral transduction of Ba/F3 cell line for 12 hours. […] Three days after transduction, 2 μg/ml puromycin (Invitrogen) was added to the RPMI media. After 5 days of selection, cells were stained with FITC-HER2 (Biolegend) sorted by FACS. Cell lines were then grown in the absence of IL-3 for two weeks and cell viability was assessed every three days using the Cell Titer Glo assay (Progema).
(§1) Briefly, 2000-3000 cells per well were plated in 384-well plates (Greiner Bio-One) in technical triplicate. Cells were treated with seven different concentrations of tyrosine kinase inhibitors or vehicle alone at a final volume of 40 μL per well. After 3 days, 11μL of Cell Titer Glo was added to each well. Plates were shaken for 15 minutes, and bioluminescence was determined using a FLUOstar OPTIMA multi-mode micro-plate reader (BMG LABTECH). Bioluminescence values were normalized to DMSO treated cells, and normalized values were plotted in GraphPad Prism using non-linear regression fit to normalized data with a variable slope.

[2] = test system: patients with HER2 mutant NSCLC; conditions: cited from earlier work
[3] = test system: MCF10A HER2 mutant cell lines; experiment: MCF10A cell viability, HER2 exon 20 mutant cell lines together (average, selectivity vs HER2 WT, T-DM1 combination); format: cell-based, human
Protocol: as §1
Human Cell lines: MCF10A cells were purchased from ATCC and were cultured in DMEM/F12 media supplemented with 1% penicillin/streptomycin, 5% horse serum (sigma), 20 ng/ml EGF, […] hydrocortisone, and 10 μg/ml insulin. […] Two days after transduction, 0.5 μg/ml puromycin (Invitrogen) was added to the RPMI media. […] CW-2 cells were provided by the Riken cell line database under MTA, and were maintained in RPMI containing 10% FBS and 1% penicillin/streptomycin.

p-HER2 = experiment: Western blot of p-HER2 in MCF10A HER2 G776delinsVC cells; format: cell-based, human; conditions: 10 nM, 2 hours treatment
Protocol: Western Blotting: For Western blotting, cells were washed in PBS and lysed in RIPPA lysis buffer (ThermoFisher) and protease inhibitor cocktail tablets (Roche). Protein (30-40 μg) was loaded into gels purchased from BioRad. BioRad semi-dry transfer was used and then probed with antibodies against, pHER2, HER2, pPI3K, PI3K, p-AKT, AKT, p-ERK1/2, and ERK1/2 (1:1000; Cell Signaling). Blots were probed with antibodies against vinculin or β-actin (Sigma-Aldrich) as a loading control, and exposed using ECL Western Blotting substrate (Promega).

[4] = test system: CW-2 large intestine cells harboring HER2 exon 19 mutation L755S; experiment: CW-2 cell viability; format: cell-based; conditions: Homo sapiens, CW-2, 72 h, read-out: average IC50
Protocol: as §1, with “Cell Viability Assay and IC50 Estimation: Cell viability was determined using the Cell Titer Glo assay (Promega) as previously described (Robichaux et al., 2018). Briefly,” for “Briefly,”, “slope. IC50 values were calculated by GraphPad Prism at 50% inhibition.” for “slope.”
Human Cell lines: MCF10A cells were purchased from ATCC and were cultured in DMEM/F12 media supplemented with 1% penicillin/streptomycin, 5% horse serum (sigma), 20 ng/ml EGF, […] hydrocortisone, and 10 μg/ml insulin. Stable cell lines were created by retroviral transduction, and retroviruses were generated by transfecting pBabe-Puro based vectors summarized in Table 1 (Addgene and Bioinnovatise) into Phoenix 293T-ampho cells (Orbigen) using Lipofectamine 2000 (Invitrogen). […]

[5] = test system: CW-2 colorectal cell xenograft (HER2 L755S); experiment: CW-2 xenograft mouse model; format: in vivo, nu/nu nude mice; conditions: day 21, 30 mg/kg, 5 days/week
Protocol: In vivo xenograft studies: CW-2 cell line xenografts were created by injecting 1×10^6 cells in 50% matrigel into 6 week old female nu/nu nude mice. When tumors reached 350 mm^3 mice were randomized into 4 groups: 20 mg/kg afatinib, 5 mg/kg poziotinib, 30 mg/kg neratinib, or vehicle control (0.5% Methylcellulose, 2% Tween-80 in dH2O). Tumor volumes were measured three times per week. Mice received drug Monday-Friday (5 days per week), but began dosing on Wednesday allowing for a 2 day holiday after the first 3 days of dosing.

[6] = test system: patients with HER2 mutant cancers; conditions: cited from earlier work
[7] = test system: HER2 Y772dupYVMA NSCLC PDX; experiment: HER2 Y772dupYVMA NSCLC PDX model; format: in vivo, NSG mice
Protocol: Y772dupYVMA PDX mice were purchased from Jax Labs (Model #TM01446). Fragments from tumors expressing HER2 Y772dupYVMA were inoculated into 5- to 6-week old female NSG mice (Jax Labs #005557). Mice were measured three times per week, and when tumors reached a volume of 200-300 mm^3 mice were randomized into four treatment groups: vehicle control (0.5% Methylcellulose, 0.05% Tween-80 in dH2O), 2.5 mg/kg poziotinib, 10 mg/kg T-DM1, or combination of 2.5 mg/kg poziotinib and 10 mg/kg T-DM1. Tumor volumes and body weight were measured three times per week. Mice treated with 2.5 mg/kg poziotinib received drug orally Monday-Friday (5 days per week). Mice treated with 10 mg/kg T-DM1 received one intravenous (IV) dose of T-DM1 on the day of randomization. Mice treated with combination poziotinib and T-DM1 received one IV dose of T-DM1 and began 2.5 mg/kg poziotinib five days per week, 3 days after the dose of T-DM1. Mice received a holiday from dosing if the mouse dropped in body weight by greater than 10% or if body weight dropped below 20 grams. Progression free survival was defined as tumor doubling from best response for two consecutive measurements. Complete regression was defined as greater than 95% reduction in tumor burden, and for mice with complete regression, tumor doubling was defined greater than 75 mm^3 for more than two consecutive measurements. Experiments were completed in agreement with Good Animal Practices and with approval from MD Anderson Cancer Center Institutional Animal Care and Use Committee (Houston, TX).

[8] = test system: patients with HER2 mutant NSCLC; conditions: cited from earlier work; remark: listed apart in the source
[9] = lung cancer patients harboring HER2 exon 20 insertion mutations

## COc1cc2ncnc(Nc3ccc(F)c(Cl)c3)c2cc1NC(=O)/C=C/CN1CCCCC1 [dacomitinib]
[1]
  inhibitory activity for HER2 mutants across all three exons: had inhibitory activity
[2]; HER2 mutant NSCLC
  ORR: 11.5%
[2]; [9]
  response rate: 11.5%
[2]; patients bearing HER2 exon 20 insertion p.Y772dupYVMA
  responses: no responses

## CS(=O)(=O)CCNCc1ccc(-c2ccc3ncnc(Nc4ccc(OCc5cccc(F)c5)c(Cl)c4)c3c2)o1 [lapatinib]
[1]
  sensitivity of HER2 mutants to inhibitor: robust resistance

## Cc1cc(C(=O)Nc2nc3cccc(Cl)c3n2[C@@H]2CCCCN(C(=O)/C=C/CN(C)C)C2)ccn1 [nazartinib]
[1]
  activity against cells expressing D769 variants: did demonstrate activity
  inhibiting cell viability in cells expressing exon 20 mutations: not effective

## CCOc1cc2ncc(C#N)c(Nc3ccc(OCc4ccccn4)c(Cl)c3)c2cc1NC(=O)/C=C/CN(C)C [neratinib]
[1]; HER2 L755S, V777L, or L869R mutations
  IC50 values in Ba/F3 drug screening: low IC50 values
[1]; HER2 V842I (exon 21)
  sensitivity of V842I mutation in the drug screen assays: not sensitive
[1]
  inhibitory activity for HER2 mutants across all three exons: had inhibitory activity
[3]; Homo sapiens, MCF-10A, average over MCF10A G776del insVC, Y772dupYVMA, G778dupGSP cells, 72 hours
  IC50: 150 nM
p-HER2
  inhibition of p-HER2: not
[4]
  IC50: 68.8 nM
[5]
  increased tumor volume compared to vehicle control: 28%
[6]; SUMMIT pan-cancer study, all HER2 mutations
  objective response rate (ORR): less than 15%
[6]; SUMMIT, HER2 kinase domain point mutations
  ORR: 21.4%
[6]; SUMMIT, exon 20 insertions
  ORR: 7.1%
[6]; SUMMIT, patients with colorectal cancer
  response: did not respond
[6]; [9]
  response rate: 0%
[6]; patients with breast cancer, single agent, multiple studies
  ORR: 12.5%-32%
[6]; patients with lung cancer, single agent
  response rate: 0%-4%

## C=CC(=O)Nc1cc(Nc2nccc(-c3cn(C)c4ccccc34)n2)c(OC)cc1N(C)CCN(C)C [osimertinib]
[1]
  activity against cells expressing D769 variants: did demonstrate activity
  inhibiting cell viability in cells expressing exon 20 mutations: not effective

## CCOc1cc2ncc(C#N)c(Nc3ccc(OCc4ccccn4)c(Cl)c3)c2cc1NC(=O)/C=C/[C@H]1CCCN1C [pyrotinib]
[3]; MCF10A HER2 mutant vs HER2 WT cell lines
  selectivity index (SI, IC50 value mutant/IC50 value WT): 0.063

## CNC(=O)CN1CCC(Oc2cc3c(Nc4cccc(Cl)c4F)ncnc3cc2OC)CC1 [sapatinib]
[1]
  sensitivity of HER2 mutants to inhibitor: robust resistance

## T-DM1
[3]; agent alone
  inhibition of cell viability of MCF10A HER2 mutant cell lines: did not inhibit cell viability
[7]; by day 30
  tumor growth after best response: tumor growth resumed in all mice
[7]; day 15 (best response), poziotinib 2.5 mg/kg, T-DM1 10 mg/kg single dose
  mice with complete tumor regression: 2/9
[7]; poziotinib 2.5 mg/kg 5 days per week, T-DM1 10 mg/kg single IV dose
  median PFS (mPFS), time to tumor doubling from best response: 27 days
[8]; patients harboring exon 20 insertion mutations
  ORR: 54.5%
[8]; patients with exon 19 mutations
  partial responses: did not have partial responses
